“And” between values parts separate entries of the source, which are not always exact repeats. Equal values may be shown once.

The results in this text go back to patent US8343996B2, “Azaquinolinone derivatives and uses thereof” (AstraZeneca AB, priority 2008, dated 2013).

For this assay, the system named is farnesyl transferase (FTase). Nature of the assay: Cytosolic Ras assay for measurement of farnesyl transferase activity (RAS Cell Assay). The format is cell-based, African green monkey. To be noted: COS-7 cells, 24 hr treatment in 0.2% DMSO; cytosolic Ras by Western blot, Ras/actin ratio. The source says:
Ras is a small GTP binding protein whose farnesylation and consequent membrane association can be reduced by inhibition of farnesyl transferase (Appels et al., Oncologist 10:565-578, 2005; Basso et al., J. Lipid Res. 47:15-31, 2006; Tamanoi, Trends Biochem. Sci. 18:349-353, 1993; each of which is incorporated herein by reference). […] Treatment with a compound of the invention reduces the farnesylation and membrane association of Ras, leading to accumulation of Ras in the cytosol of the cells. An assay was developed to monitor FTase activity, based on the amount of Ras present in the cytosolic fraction of COS-7 cells after FTI treatment. On day 0, COS-7 cells were passaged into 6-well plates at a density of 4×10^5 cells/well. Beginning on day 1, cells were treated with a compound of the invention in 0.2% DMSO for 24 hr. On day 2, cells were lysed by passage through a 25 gauge needle 10 times in 100 μl Buffer 1 (50 mM Tris, 140 mM NaCl, 2 mM EDTA, protease inhibitor cocktail, pH 7.4) and lysates were centrifuged at 16,000 g for 30 min to isolate the cytosolic fraction (supernatant). The cytosolic fraction was analyzed by Western blot using anti-Ras antibody and anti-actin antibody for loading control. Results were quantified based on densitometric analysis of Ras signal normalized to actin signal (Ras/actin ratio). Treatment with a compound of the invention increases the amount of Ras in the cytosolic fraction in a dose-dependent manner. Using this method, compounds of the invention were analyzed for their ability to inhibit FTase activity, in that an increase in the Ras/actin ratio indicates inhibition of FTase.
For orientation: In western blotting, separated proteins are transferred to a membrane and probed.
Usually IC50 stands for the point on the concentration scale where inhibition reaches its midpoint. For `COc1cccc(-c2cc(=O)n(C)c3ncc([C@@](O)(c4ccc(Cl)cc4)c4cncn4C)cc23)c1` [Compound 6b, 6-((4-chlorophenyl)(hydroxy)(1-methyl-1H-imidazol-5-yl)methyl)-4-(3-methoxyphenyl)-1-methyl-1,8-naphthyridin-2(1H)-one], the IC50 stood at 190 nM. As for `C#Cc1cccc(-c2cc(=O)n(C)c3ncc([C@](O)(c4ccc(Cl)cc4)c4cncn4C)cc23)c1` [Compound 4b], the IC50 is 0.57 nM and 0.54 nM. For `COc1cccc(-c2cc(=O)n(C)c3ncc([C@@](N)(c4ccc(Cl)cc4)c4cncn4C)cc23)c1` [Compound 5b, 6-(amino(4-chlorophenyl)(1-methyl-1H-imidazol-5-yl)methyl)-4-(3-methoxyphenyl)-1-methyl-1,8-naphthyridin-2(1H)-one], the IC50 worked out at 300 nM. As for `C#Cc1cccc(-c2cc(=O)n(C)c3ncc([C@@](O)(c4ccc(Cl)cc4)c4cncn4C)cc23)c1` [Compound 4a], the IC50 turned out to be 300 nM. As for `COc1cccc(-c2cc(=O)n(C)c3ncc([C@](O)(c4ccc(Cl)cc4)c4cncn4C)cc23)c1` [Compound 6a, 6-((4-chlorophenyl)(hydroxy)(1-methyl-1H-imidazol-5-yl)methyl)-4-(3-methoxyphenyl)-1-methyl-1,8-naphthyridin-2(1H)-one], the figure is 2.3 nM and 4.2 nM. Regarding `COc1cccc(-c2cc(=O)n(C)c3ncc([C@](N)(c4ccc(Cl)cc4)c4cncn4C)cc23)c1` [Compound 5a, 6-(amino(4-chlorophenyl)(1-methyl-1H-imidazol-5-yl)methyl)-4-(3-methoxyphenyl)-1-methyl-1,8-naphthyridin-2(1H)-one], the half-maximal inhibitory concentration (IC50) is 3.9 nM and 2 nM.
